# Measured values reported in patent publication US20100190747A1, “Fused ring compound and use thereof” (priority 2009, published 2010).
# Molecular target: T1, delta-5-desaturase (Rattus norvegicus, UniProt Q920R3)
# T1 construct: the microsomal fraction of a rat river (10 μl), which had been diluted to 3 mg/ml; from tissue; host or cells: rat liver microsomal fraction
# Assay: Inhibitory activity on delta-5-desaturase (rat liver microsomal fraction, 14C-eicosatrienoic acid, TLC)
# Type: biochemical
# Conditions: test compound at 10 μM, room temperature, 120 minutes
# Method in brief: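 Rat liver microsomes (3 mg/ml before addition) incubated with test compound at 10 μM, NADH, ATP, CoA and 14C-eicosatrienoic acid in phosphate buffer pH 7.4 with BSA and glutathione, 120 min at room temperature. Lipids saponified, extracted, separated by reverse-phase TLC and imaged; % inhibition reported.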
# T1 sequence (Q920R3 whole entry): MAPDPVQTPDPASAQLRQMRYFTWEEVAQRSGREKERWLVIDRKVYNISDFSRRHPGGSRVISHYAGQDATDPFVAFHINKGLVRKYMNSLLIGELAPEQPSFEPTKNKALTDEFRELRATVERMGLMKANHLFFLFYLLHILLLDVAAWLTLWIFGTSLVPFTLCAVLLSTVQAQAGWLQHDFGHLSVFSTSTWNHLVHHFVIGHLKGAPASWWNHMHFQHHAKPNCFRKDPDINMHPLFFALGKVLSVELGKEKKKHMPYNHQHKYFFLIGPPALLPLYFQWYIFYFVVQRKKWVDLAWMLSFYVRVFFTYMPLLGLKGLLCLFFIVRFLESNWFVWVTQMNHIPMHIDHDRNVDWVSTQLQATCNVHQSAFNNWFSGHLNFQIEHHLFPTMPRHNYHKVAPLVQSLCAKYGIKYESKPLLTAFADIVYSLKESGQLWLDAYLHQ
row,SMILES,inhibition at 10 µM [%]
1,"COCCOCCCSc1nc2c(c(=O)n1-c1ccc(OCC(F)(F)F)cc1)CC(=O)N2 [Example 299, 2-{[3-(2-Methoxyethoxy)propyl]sulfanyl}-3-[4-(2,2,2-trifluoroethoxy)phenyl]-5,7-dihydro-3H-pyrrolo[2,3-d]pyrimidine-4,6-dione]",100
2,"O=C1Cc2c(nc(SCC3CCC3)n(-c3ccc(OCC(F)(F)F)cc3)c2=O)N1 [Example 296, 2-[(Cyclobutylmethyl)sulfanyl]-3-[4-(2,2,2-trifluoroethoxy)phenyl]-5,7-dihydro-3H-pyrrolo[2,3-d]pyrimidine-4,6-dione]",101
3,"CCc1c[nH]c2c(=O)n(-c3ccc(OCC(F)(F)F)cc3)c(SCCCC(=O)NCCC#N)nc12 [Example 171, N-(2-cyanoethyl)-4-({7-ethyl-4-oxo-3-[4-(2,2,2-trifluoroethoxy)phenyl]-4,5-dihydro-3H-pyrrolo[3,2-d]pyrimidin-2-yl}sulfanyl)butanamide]",98
4,"N#CCCNC(=O)CCCSc1nc2cc[nH]c2c(=O)n1-c1ccc(OCC2CC2)cc1 [Example 92, N-(2-cyanoethyl)-4-({3-[4-(cyclopropylmethoxy)phenyl]-4-oxo-4,5-dihydro-3H-pyrrolo[3,2-d]pyrimidin-2-yl}sulfanyl)butanamide]",102
5,"N#CCCNC(=O)CCCSc1nc2[nH]ccc2c(=O)n1-c1ccc(OCCC(F)(F)F)cc1 [Example 189, N-(2-cyanoethyl)-4-({4-oxo-3-[4-(3,3,3-trifluoropropoxy)phenyl]-4,7-dihydro-3H-pyrrolo[2,3-d]pyrimidin-2-yl}sulfanyl)butanamide]",105
6,"CCSc1nc2c(c(=O)n1-c1ccc(OCC(F)(F)F)c(F)c1)CC(=O)N2 [Example 307, 2-(Ethylsulfanyl)-3-[3-fluoro-4-(2,2,2-trifluoroethoxy)phenyl]-5,7-dihydro-3H-pyrrolo[2,3-d]pyrimidine-4,6-dione]",99
7,"CCCSc1nc2c(c(=O)n1-c1ccc(OCC(F)(F)F)cc1)CC(=O)N2 [Example 286, 2-(Propylsulfanyl)-3-[4-(2,2,2-trifluoroethoxy)phenyl]-5,7-dihydro-3H-pyrrolo[2,3-d]pyrimidine-4,6-dione]",102
8,"CSc1nc2c(c(=O)n1-c1ccc(OCC(F)(F)C(F)(F)F)cc1)CC(=O)N2 [Example 303, 2-(Methylsulfanyl)-3-[4-(2,2,3,3,3-pentafluoropropoxy)phenyl]-5,7-dihydro-3H-pyrrolo[2,3-d]pyrimidine-4,6-dione]",98
9,"CS(=O)(=O)CCCSc1nc2c(c(=O)n1-c1ccc(OCC3CC3)cc1)CC(=O)N2 [Example 301, 3-[4-(Cyclopropylmethoxy)phenyl]-2-{[3-(methylsulfonyl)propyl]sulfanyl}-5,7-dihydro-3H-pyrrolo[2,3-d]pyrimidine-4,6-dione]",99
10,"O=C1Cc2c(nc(Sc3ccc(F)cc3)n(-c3ccc(OCC(F)(F)F)cc3)c2=O)N1 [Example 336, 2-[(4-Fluorophenyl)sulfanyl]-3-[4-(2,2,2-trifluoroethoxy)phenyl]-5,7-dihydro-3H-pyrrolo[2,3-d]pyrimidine-4,6-dione]",101
11,"N#CCCNC(=O)CCCSc1nc2[nH]ccc2c(=O)n1-c1ccc(OCC2CCC2)cc1 [Example 183, N-(2-cyanoethyl)-4-({3-[4-(cyclobutylmethoxy)phenyl]-4-oxo-4,7-dihydro-3H-pyrrolo[2,3-d]pyrimidin-2-yl}sulfanyl)butanamide]",99
12,"CC(C)COc1nc2c(c(=O)n1-c1ccc(OCC(F)(F)F)cc1)CC(=O)N2 [Example 318, 2-(2-Methylpropoxy)-3-[4-(2,2,2-trifluoroethoxy)phenyl]-5,7-dihydro-3H-pyrrolo[2,3-d]pyrimidine-4,6-dione]",103
13,"CCOc1ccc(-n2c(SCCCS(=O)(=O)NCCC#N)nc3cc[nH]c3c2=O)cc1 [Example 62, N-(2-cyanoethyl)-3-{[3-(4-ethoxyphenyl)-4-oxo-4,5-dihydro-3H-pyrrolo[3,2-d]pyrimidin-2-yl]sulfanyl}propane-1-sulfonamide]",102
14,"CCOc1ccc(-n2c(SCCCC(=O)NCCC#N)nc3cc[nH]c3c2=O)cc1 [Example 60, N-(2-cyanoethyl)-4-{[3-(4-ethoxyphenyl)-4-oxo-4,5-dihydro-3H-pyrrolo[3,2-d]pyrimidin-2-yl]sulfanyl}butanamide]",99
15,"CCOc1ccc(-n2c(SCCCC(=O)N(C)CCC#N)nc3cc[nH]c3c2=O)cc1 [Example 66, N-(2-cyanoethyl)-4-{[3-(4-ethoxyphenyl)-4-oxo-4,5-dihydro-3H-pyrrolo[3,2-d]pyrimidin-2-yl]sulfanyl}-N-methylbutanamide]",101
16,"O=c1c2cc[nH]c2nc(OCC(F)(F)F)n1-c1ccc(OCC(F)(F)F)c(F)c1 [Example 264, 3-[3-Fluoro-4-(2,2,2-trifluoroethoxy)phenyl]-2-(2,2,2-trifluoroethoxy)-3,7-dihydro-4H-pyrrolo[2,3-d]pyrimidin-4-one]",101
17,"CC1(COc2ccc(-n3c(SCCCC(=O)NCCC#N)nc4[nH]ccc4c3=O)cc2)CC1 [Example 188, N-(2-cyanoethyl)-4-[(3-{4-[(1-methylcyclopropyl)methoxy]phenyl}-4-oxo-4,7-dihydro-3H-pyrrolo[2,3-d]pyrimidin-2-yl)sulfanyl]butanamide]",98
18,"COCCOCCCSc1nc2cc[nH]c2c(=O)n1-c1ccc(OCC2CC2)cc1 [Example 141, 3-[4-(Cyclopropylmethoxy)phenyl]-2-{[3-(2-methoxyethoxy)propyl]sulfanyl}-3,5-dihydro-4H-pyrrolo[3,2-d]pyrimidin-4-one]",100
19,"O=c1c2[nH]ccc2nc(SCCCS(=O)(=O)N2CCOCC2)n1-c1ccc(OCC(F)(F)F)cc1 [Example 106, 2-{[3-(Morpholin-4-ylsulfonyl)propyl]sulfanyl}-3-[4-(2,2,2-trifluoroethoxy)phenyl]-3,5-dihydro-4H-pyrrolo[3,2-d]pyrimidin-4-one]",102

# Other lines, results leading:
row,inhibition at 10 µM [%],SMILES
1,101,"CCOCCOCCSc1nc2[nH]ccc2c(=O)n1-c1ccc(OCC(F)(F)F)cc1 [Example 192, 2-{[2-(2-Ethoxyethoxy)ethyl]sulfanyl}-3-[4-(2,2,2-trifluoroethoxy)phenyl]-3,7-dihydro-4H-pyrrolo[2,3-d]pyrimidin-4-one]"
2,96,"CCSc1nc2[nH]c(Br)cc2c(=O)n1-c1ccc(OCC(F)(F)F)cc1 [Example 232, 6-Bromo-2-(ethylsulfanyl)-3-[4-(2,2,2-trifluoroethoxy)phenyl]-3,7-dihydro-4H-pyrrolo[2,3-d]pyrimidin-4-one]"
3,100,"CSc1nc2cc[nH]c2c(=O)n1-c1ccc(OCC(F)(F)F)cc1 [Example 121, 2-(Methylsulfanyl)-3-[4-(2,2,2-trifluoroethoxy)phenyl]-3,5-dihydro-4H-pyrrolo[3,2-d]pyrimidin-4-one]"
4,108,"CC(C)(O)CCSc1nc2cc[nH]c2c(=O)n1-c1ccc(OCC(F)(F)F)cc1 [Example 131, 2-[(3-Hydroxy-3-methylbutyl)sulfanyl]-3-[4-(2,2,2-trifluoroethoxy)phenyl]-3,5-dihydro-4H-pyrrolo[3,2-d]pyrimidin-4-one]"
5,103,"O=c1c2cc[nH]c2nc(OC2CCC2)n1-c1ccc(OCC(F)(F)F)cc1 [Example 247, 2-(Cyclobutyloxy)-3-[4-(2,2,2-trifluoroethoxy)phenyl]-3,7-dihydro-4H-pyrrolo[2,3-d]pyrimidin-4-one]"
6,102,"O=c1c2cc[nH]c2nc(OCC2CC2)n1-c1ccc(OCC(F)(F)F)cc1 [Example 226, 2-(Cyclopropylmethoxy)-3-[4-(2,2,2-trifluoroethoxy)phenyl]-3,7-dihydro-4H-pyrrolo[2,3-d]pyrimidin-4-one]"
7,99,"O=C(CCCSc1nc2cc[nH]c2c(=O)n1-c1ccc(OCC(F)(F)F)cc1)NC1CC1 [Example 76, N-cyclopropyl-4-({4-oxo-3-[4-(2,2,2-trifluoroethoxy)phenyl]-4,5-dihydro-3H-pyrrolo[3,2-d]pyrimidin-2-yl}sulfanyl)butanamide]"
8,100,"CCCSc1nc2[nH]ccc2c(=O)n1-c1ccc(OCC(F)(F)F)cc1 [Example 224, 2-(Propylsulfanyl)-3-[4-(2,2,2-trifluoroethoxy)phenyl]-3,7-dihydro-4H-pyrrolo[2,3-d]pyrimidin-4-one]"
9,96,"CCCCSc1nc2[nH]ccc2c(=O)n1-c1ccc(OCC(F)(F)F)cc1 [Example 252, 2-(Butylsulfanyl)-3-[4-(2,2,2-trifluoroethoxy)phenyl]-3,7-dihydro-4H-pyrrolo[2,3-d]pyrimidin-4-one]"
10,101,"O=c1c2cc[nH]c2nc(Oc2ccc(F)cc2)n1-c1ccc(OCC(F)(F)F)cc1 [Example 246, 2-(4-Fluorophenoxy)-3-[4-(2,2,2-trifluoroethoxy)phenyl]-3,7-dihydro-4H-pyrrolo[2,3-d]pyrimidin-4-one]"
11,100,"CCSc1nc2[nH]ccc2c(=O)n1-c1ccc(OCC2CC2)cc1 [Example 208, 3-[4-(Cyclopropylmethoxy)phenyl]-2-(ethylsulfanyl)-3,7-dihydro-4H-pyrrolo[2,3-d]primidin-4-one]"
12,104,"CC(C)Oc1nc2[nH]ccc2c(=O)n1-c1ccc(OCC(F)(F)F)cc1 [Example 221, 2-(1-Methylethoxy)-3-[4-(2,2,2-trifluoroethoxy)phenyl]-3,7-dihydro-4H-pyrrolo[2,3-d]pyrimidin-4-one]"
13,104,"O=c1c2cc[nH]c2nc(SC2CC2)n1-c1ccc(OCC(F)(F)F)cc1 [Example 256, 2-(Cyclopropylsulfanyl)-3-[4-(2,2,2-trifluoroethoxy)phenyl]-3,7-dihydro-4H-pyrrolo[2,3-d]pyrimidin-4-one]"

# Same assay, conditions: test compound at 10 μM, room temperature, 120 minutes, 10 µM
row,SMILES,Inhibitory activity at 10 μM (%)
1,"CCCCOc1nc2[nH]ccc2c(=O)n1-c1ccc(OCC(F)(F)F)cc1 [Example 287, 2-Butoxy-3-[4-(2,2,2-trifluoroethoxy)phenyl]-3,7-dihydro-4H-pyrrolo[2,3-d]pyrimidin-4-one]",98
